Source: patent US20260062412A1, “NITROGEN-CONTAINING HETEROCYCLIC COMPOUND HAVING MYT1 INHIBITORY ACTIVITY” (CHUGAI SEIYAKU KABUSHIKI KAISHA, priority 2023, published 2026)

Tests used:
MYT1 protein [1] = molecular target: T1, MYT1 protein (Homo sapiens (Human), UniProt Q99640); test: MYT1 kinase activity inhibition test (ELISA, phosphorylation of Y15 of CDK1); type: biochemical; conditions: phosphorylation level of Y15 of CDK1 protein caused by MYT1 protein, 60 minutes
Procedure: The MYT1 kinase activity inhibitory capacity of each compound was evaluated by evaluating the phosphorylation level of Y15 of CDK1 protein caused by MYT1 protein, by ELISA. The kit of CycLex Weel Kinase Assay/Inhibitor Screening Kit Ver. 3 (manufactured by MBL, CY-1172V3) was used. Using Kinase Buffer, 10 μL of 5 nM MYT1 protein (manufactured by Carna Biosciences, Inc.) was prepared. In addition, 30 μL of 83.3 μM of ATP was prepared using Kinase Buffer. In addition, 10 μL of each compound was diluted to each concentration using Kinase Buffer. 30 μL of ATP was added to the plate of the kit, and thereafter, 10 μL of each compound was added thereto. Further, 10 μL of the diluted MYT1 protein solution was added thereto, and then the mixture was mixed, which was allowed to stand at room temperature for 60 minutes. The reaction solution was removed from each well, and each well was washed using Wash Buffer. After Wash Buffer was removed, 100 μL of HRP conjugated Anti-phospho-tyrosine antibody was added to each well, which was allowed to stand at room temperature for 60 minutes. Thereafter, the reaction solution was removed from each well, and each well was washed using Wash Buffer. After Wash Buffer was removed, 100 μL of Substrate Reagent was added to each well, which was allowed to stand at room temperature for 8 minutes. Thereafter, 100 μL of Stop Solution (1 N sulfuric acid) was added to each well according to the manual. Absorbances at 450 nm and 590 nm were measured using Envision (manufactured by PerkinElmer). The phosphorylation level of CDK1 protein was evaluated for each well by subtracting the absorbance at 590 nm from the absorbance at 450 nm. The inhibition rate of each compound added at each concentration was calculated by setting the signal when the compound was not added as 100% and the signal when MYT1 protein was not added as 0%, and the calculation results of IC50 were shown in Table 4.

LU65 = test: Cytotoxicity test with pemetrexed upon addition of each example compound (CellTiter-Glo); type: cell-based, human; conditions: combination with pemetrexed, LU65 cells, 7 days; maximum value, at the MYT1 inhibitor and pemetrexed concentrations
Procedure: LU65 (received from human tissue bank (JCRB Cell Bank)) was used in the evaluation of the present invention. LU65 is a lung cancer cell line having a truncated deletion mutation of S82* in RB1 gene (see Nature. 2019 May; 569(7757): 503-508. (Non Patent Literature 22)), in which the function of RB1 is decreased. The cell culture was carried out using RPMI-1640 (manufactured by SIGMA) containing 10% FBS (manufactured by SIGMA).
Each pemetrexed (manufactured by Tokyo Kasei Kogyo Co., Ltd.) and each example compound of each concentration were diluted using a DMSO solution, and 0.04 μL of each of series of dilution and DMSO was added to each well of cell culture plate using Echo 555 Liquid Handler (manufactured by Beckman Coulter Inc.). 1000 LU65 cells ([…]) were added to each well, which was cultured at 37° C. in a 5% CO2 incubator for 7 days. Intracellular ATP level which is a cell survival marker was measured and used in the monitoring of cell number. After culturing, 20 μL of CellTiter-Glo (registered trademark) 2.0 (manufactured by Promega) was added to each well, and the emission intensity was measured using Multimode Plate Reader En Vision (registered trademark) Xcite (manufactured by PerkinElmer). The cell survival rate under each condition was calculated by setting the value obtained by subtracting the luminescence of the cell unseeded well from the luminescence of the DMSO-added well as 100%, and calculating the proportion of a value obtained by subtracting the luminescence of the cell unseeded well from the luminescence detected at each well.
In addition, the cytotoxic activity under each condition was calculated by subtracting the survival rate in a combination of pemetrexed of each treatment concentration and each example compound of each treatment concentration, from 100%.

MYT1 protein [2] = molecular target: T1, MYT1 protein; test: Test for binding to ATP binding site of MYT1 (Kinase Tracer 178 / Eu-Anti-GST antibody TR-FRET); conditions: ATP binding site of MYT1, 30 minutes at room temperature

T1 sequence (Q99640 whole entry): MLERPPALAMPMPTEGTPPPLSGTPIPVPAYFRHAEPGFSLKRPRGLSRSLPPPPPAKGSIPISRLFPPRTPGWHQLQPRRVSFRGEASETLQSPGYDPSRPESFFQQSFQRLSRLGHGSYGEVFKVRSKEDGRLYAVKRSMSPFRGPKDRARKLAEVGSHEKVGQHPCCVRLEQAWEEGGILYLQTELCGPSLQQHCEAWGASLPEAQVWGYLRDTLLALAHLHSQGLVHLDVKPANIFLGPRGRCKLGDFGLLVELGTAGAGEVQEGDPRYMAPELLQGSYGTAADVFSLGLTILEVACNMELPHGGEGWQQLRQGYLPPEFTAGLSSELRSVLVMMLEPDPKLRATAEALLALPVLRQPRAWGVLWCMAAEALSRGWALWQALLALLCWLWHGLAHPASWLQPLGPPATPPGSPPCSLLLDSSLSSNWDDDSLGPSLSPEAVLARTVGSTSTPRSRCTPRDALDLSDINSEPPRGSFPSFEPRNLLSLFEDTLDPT

Compound | IC50 (MYT1 protein [1]) | IC50 (MYT1 protein [2]) | Bliss Score (Max) (LU65) | HSA Score (MAX) (LU65)
CCc1cc2c(-c3ccc(F)c4[nH]ncc34)c(N)c(=O)[nH]c2c2cccnc12 [Compound C86, 3-Amino-6-ethyl-4-(7-fluoro-1H-indazol-4-yl)-1H-1,7-phenanthrolin-2-one] | < 0.17 nM | 4.6 nM | 67% | 71%
Nc1c(-c2ccc(F)c3[nH]ncc23)c2cc(C3CC3)c3cccnc3c2[nH]c1=O [Compound D2, 3-Amino-6-cyclopropyl-4-(7-fluoro-1H-indazol-4-yl)-1H-1,10-phenanthrolin-2-one] | 15 nM | 4 nM | 42% | 51%
Nc1c(-c2ccc(F)c3[nH]ncc23)c2cc(C3CC3)c3ncccc3c2[nH]c1=O [Compound C84, 3-amino-6-cyclopropyl-4-(7-fluoro-1H-indazol-4-yl)-1H-1,7-phenanthrolin-2-one] | 0.25 nM | 2.3 nM | 68% | 70%
Nc1c(-c2ccc(F)c3[nH]ncc23)c2cc([C@H]3CC[C@H](O)CC3)c3ncccc3c2[nH]c1=O [Compound C140, 3-Amino-4-(7-fluoro-1H-indazol-4-yl)-6-((1r, 4r)-4-hydroxycyclohexyl)-1H-1,7-phenanthrolin-2-one] | < 4.6 nM | 1.7 nM | 73% | 76%
CC(C)Oc1cc2c(-c3cc(F)c(F)c4[nH]ncc34)c(N)c(=O)[nH]c2c2cccnc12 [Compound C69, 3-Amino-4-(6,7-difluoro-1H-indazol-4-yl)-6-propan-2-yloxy-1H-1,7-phenanthrolin-2-one] | 0.1 nM | 2 nM | 66% | 69%
Nc1c(-c2ccc(F)c3[nH]ncc23)c2cc(C3CCN(C4CCOCC4)CC3)c3ncccc3c2[nH]c1=O [Compound C137, 3-Amino-4-(7-fluoro-1H-indazol-4-yl)-6-[1-(oxan-4-yl)piperidin-4-yl]-1H-1,7-phenanthrolin-2-one] | 7.7 nM | 4.7 nM | 45% | 56%
Nc1c(-c2cccc3[nH]ncc23)c2cc(C3CC3)c3ccc(F)cc3c2[nH]c1=O [Compound B47, 3-Amino-6-cyclopropyl-9-fluoro-4-(1H-indazol-4-yl)-1H-benzo[h]quinolin-2-one] | 1.1 nM | 10 nM | 54% | 62%
Nc1c(-c2ccc(Cl)c3[nH]ncc23)c2cc(C3CC3)c3ccccc3c2[nH]c1=O [Compound B37, 3-Amino-4-(7-chloro-1H-indazol-4-yl)-6-cyclopropyl-1H-benzo[h]quinolin-2-one] | 0.75 nM | 6 nM | 31% | 34%
Nc1c(-c2ccc(F)c3[nH]ncc23)c2cc(C3CC3)c3cnccc3c2[nH]c1=O.O=C(O)C(F)(F)F [Compound P4, 3-Amino-6-cyclopropyl-4-(7-fluoro-1H-indazol-4-yl)-1H-1,8-phenanthrolin-2-one 2,2,2-trifluoroacetate] | 5.9 nM | 6.1 nM | 56% | 67%
Nc1c(-c2ccc(F)c3[nH]ncc23)c2cc(F)c3ccccc3c2[nH]c1=O [Compound B35, 3-Amino-6-fluoro-4-(7-fluoro-1H-indazol-4-yl)-1H-benzo[h]quinolin-2-one] | 0.44 nM | 3.7 nM | 61% | 70%
Nc1c(-c2ccc(F)c3[nH]ncc23)c2cc(C3CCN(C4CCC4)CC3)c3ncccc3c2[nH]c1=O [Compound C134, 3-Amino-6-(1-cyclobutylpiperidin-4-yl)-4-(7-fluoro-1H-indazol-4-yl)-1H-1,7-phenanthrolin-2-one] | 7.6 nM | 3.6 nM | 49% | 60%
Nc1c(-c2ccc(F)c3[nH]ncc23)c2cc(Br)c3ncccc3c2[nH]c1=O [Compound C1, 3-amino-6-bromo-4-(7-fluoro-1H-indazol-4-yl)-1H-1,7-phenanthrolin-2-one] | < 0.17 nM | 2 nM | 59% | 71%
Cc1cc2c(-c3ccc(F)c4[nH]ncc34)c(N)c(=O)[nH]c2c2cccnc12 [Compound C85, 3-amino-4-(7-fluoro-1H-indazol-4-yl)-6-methyl-1H-1,7-phenanthrolin-2-one] | 0.19 nM | 2.5 nM | 59% | 58%
Nc1c(-c2ccc(F)c3[nH]ncc23)c2cc(/C=C/CCO)c3ncccc3c2[nH]c1=O [Compound C100, 3-Amino-4-(7-fluoro-1H-indazol-4-yl)-6-[(E)-4-hydroxybut-1-enyl]-1H-1,7-phenanthrolin-2-one] | 5.5 nM | 1.5 nM | 46% | 50%
Cc1cc2c(-c3c(F)ccc4[nH]ncc34)c(N)c(=O)[nH]c2c2cccnc12 [Compound C155, 3-Amino-4-(5-fluoro-1H-indazol-4-yl)-6-methyl-1H-1,7-phenanthrolin-2-one] | < 4.6 nM | 2.3 nM | 47% | 61%

Further lines, with some results ahead:

IC50 (MYT1 protein [1]) | IC50 (MYT1 protein [2]) | Compound | Bliss Score (Max) (LU65) | HSA Score (MAX) (LU65)
6.4 nM | 6.3 nM | Nc1c(-c2cccc3[nH]ncc23)c2ccc3ccccc3c2[nH]c1=O [Compound B46, 3-Amino-4-(1H-indazol-4-yl)-1H-benzo[h]quinolin-2-one] | 52% | 65%
1.7 nM | 19 nM | Nc1c(-c2ccc(F)c3[nH]ncc23)c2cc(C3CCCC3)c3ncccc3c2[nH]c1=O [Compound C92, 3-Amino-6-cyclopentyl-4-(7-fluoro-1H-indazol-4-yl)-1H-1,7-phenanthrolin-2-one] | 56% | 68%
0.62 nM | 16 nM | Nc1c(-c2ccc(F)c3[nH]ncc23)c2cc(C3CCC3)c3ccccc3c2[nH]c1=O [Compound B24, 3-Amino-6-cyclobutyl-4-(7-fluoro-1H-indazol-4-yl)-1H-benzo[h]quinolin-2-one] | 52% | 60%
0.2 nM | 7.4 nM | Nc1c(-c2ccc(F)c3[nH]ncc23)c2cc(F)c3ncccc3c2[nH]c1=O [Compound C64, 3-Amino-6-fluoro-4-(7-fluoro-1H-indazol-4-yl)-1H-1,7-phenanthrolin-2-one] | 45% | 54%
0.15 nM | 1.4 nM | CC(C)Oc1cc2c(-c3ccc(F)c4[nH]ncc34)c(N)c(=O)[nH]c2c2cccnc12 [Compound C13, 3-Amino-4-(7-fluoro-1H-indazol-4-yl)-6-propan-2-yloxy-1H-1,7-phenanthrolin-2-one] | 62% | 66%
0.15 nM | 1.3 nM | COc1cc2c(-c3ccc(F)c4[nH]ncc34)c(N)c(=O)[nH]c2c2cccnc12 [Compound C4, 3-Amino-4-(7-fluoro-1H-indazol-4-yl)-6-methoxy-1H-1,7-phenanthrolin-2-one] | 61% | 62%
< 0.17 nM | 3.1 nM | Nc1c(-c2ccc(F)c3[nH]ncc23)c2cc(Cl)c3ncccc3c2[nH]c1=O [Compound C78, 3-Amino-6-chloro-4-(7-fluoro-1H-indazol-4-yl)-1H-1,7-phenanthrolin-2-one] | 53% | 66%
